TGI data for 15 compounds are collected here from PubChem BioAssay (NCI).

Molecules are shown by their SMILES.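 Exposure lasted 48 hours, with cells grown in 96-well plates and compounds tested at five concentrations. TGI is the concentration that stops growth completely.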 Where only a bound is given, the exact number is not on record here.

Among the test systems are SF-295 CNS; SF-539 CNS; RPMI-8226 leukemia; SN12C renal; M14 melanoma; SF-268 CNS; SNB-19 CNS; K-562 leukemia; IGROV1 ovarian; SR leukemia; HOP-92 NSCLC.
Holding throughout (experiment): inhibition of tumour cell growth, NCI panel, 48 h

For `C[N+]1(CCCl)CC[N+](C)(CCCl)CC1` (configuration not stated), the TGI with SF-295 CNS, with SF-539 CNS, in the experiment with RPMI-8226 leukemia, with SN12C renal, in the experiment on M14 melanoma and in the experiment on SF-268 CNS was > 100 µM throughout. Moreover, the TGI in the experiment with SNB-19 CNS, in the experiment on K-562 leukemia and in the experiment with IGROV1 ovarian was > 100 µM each time.

With `CC1=Nc2sc3c(c2C2=NCCN12)CCCC3`, the TGI with SF-295 CNS was 98.7 µM; with RPMI-8226 leukemia it was 46.9 µM; with SN12C renal it was 69.6 µM; in the experiment with SF-268 CNS, > 100 µM; with SNB-19 CNS it was > 100 µM; with K-562 leukemia, > 100 µM. Also, the TGI with IGROV1 ovarian worked out at 60.7 µM; in the experiment on SR leukemia, 65.2 µM.

Regarding `O=C(O)/C(Cc1ccc([N+](=O)[O-])cc1)=N\O`, the TGI with SF-295 CNS, with HOP-92 NSCLC, in the experiment on SF-539 CNS, with RPMI-8226 leukemia, with SN12C renal and in the experiment on M14 melanoma was > 100 µM in each case. The TGI in the experiment on SF-268 CNS, with SNB-19 CNS, in the experiment with K-562 leukemia and in the experiment with IGROV1 ovarian was > 100 µM each time.

On to `Nc1ccc(C(=O)c2cn(CCN3CCOCC3)c3ccccc23)c2ccccc12`, for which the TGI with SF-295 CNS, with SF-539 CNS, in the experiment on RPMI-8226 leukemia, in the experiment on M14 melanoma, in the experiment on SF-268 CNS and in the experiment with SNB-19 CNS was > 100 µM each time. The TGI amounted to 56.7 µM in the experiment on K-562 leukemia, 52.3 µM in the experiment on IGROV1 ovarian and 65.6 µM in the experiment with SR leukemia.

As to `O=C(N/N=C(/COc1ccc([N+](=O)[O-])cc1)N=Cc1ccncc1)c1ccncc1`, the TGI with SF-295 CNS, in the experiment on SF-539 CNS, with RPMI-8226 leukemia, with SN12C renal, in the experiment with M14 melanoma and in the experiment with SF-268 CNS was > 100 µM each time. Besides, the TGI in the experiment on SNB-19 CNS, in the experiment on K-562 leukemia and with IGROV1 ovarian was > 100 µM in each case.

`CC1C2(C)OC(=N)C(C#N)(C(c3cccc([N+](=O)[O-])c3)O2)C1(C#N)C#N` (configuration not stated): the TGI in the experiment on SF-295 CNS is > 100 µM; with HOP-92 NSCLC, 33.1 µM; in the experiment with SF-539 CNS, 34.2 µM; in the experiment with SN12C renal, 28.1 µM; in the experiment with M14 melanoma, 38.7 µM; in the experiment on SF-268 CNS, > 100 µM. Besides, the TGI with SNB-19 CNS, with K-562 leukemia and in the experiment on IGROV1 ovarian was > 100 µM throughout.

As to `CC(C)(C)C(=O)OC12/C(=N/O)CCCCCC1c1ccccc12` (configuration not stated), the TGI was found to be 29.2 µM with SF-295 CNS; 39 µM in the experiment with SF-539 CNS; 30.9 µM in the experiment on RPMI-8226 leukemia; 33.6 µM in the experiment on SN12C renal; 31.2 µM with M14 melanoma; 32.4 µM with SF-268 CNS. In addition, the TGI stood at 31.1 µM in the experiment on SNB-19 CNS, 55.4 µM in the experiment with K-562 leukemia and 29.6 µM in the experiment on IGROV1 ovarian.

On to `O=C1OC(=O)c2cc(S(=O)(=O)c3ccc4c(c3)C(=O)OC4=O)ccc21`, for which the TGI in the experiment on SF-295 CNS, in the experiment on SF-539 CNS, in the experiment with RPMI-8226 leukemia, with SN12C renal, in the experiment with M14 melanoma and in the experiment with SF-268 CNS was > 100 µM throughout. Besides, the TGI in the experiment on SNB-19 CNS, with K-562 leukemia and in the experiment on IGROV1 ovarian was > 100 µM in each case.

Turning to `Cc1csc(/N=C\c2c(O)c3ccccc3oc2=O)n1`, the TGI is 89.8 µM in the experiment on HOP-92 NSCLC; > 100 µM in the experiment on SF-539 CNS; > 100 µM in the experiment on M14 melanoma; > 100 µM in the experiment on SF-268 CNS; > 100 µM in the experiment with SNB-19 CNS; > 100 µM in the experiment on K-562 leukemia. Besides, the TGI in the experiment with IGROV1 ovarian was > 100 µM.

Turning to `O=C(O)Cc1ccc2[nH]c(O)c(C3=Nc4ccccc4C3=O)c2c1`, the TGI in the experiment with SF-295 CNS, with RPMI-8226 leukemia, in the experiment with SN12C renal, with M14 melanoma, with SF-268 CNS and with SNB-19 CNS was > 100 µM each time. For the same compound, the TGI was > 100 µM with K-562 leukemia, 48.2 µM in the experiment with IGROV1 ovarian and 93 µM in the experiment on SR leukemia.

As for `C/C=C/C1OC(O)(C(C)C(O)[C@H](C)C2OC(=O)/C(OC)=C/C(C)=C/[C@@H](C)[C@@H](O)[C@@H](C)C(O)C(C)C/C(C)=C/C=C/C2OC)C[C@@H](OC2CC(O)C(OC(N)=O)C(C)O2)C1C` (some centres not stated), the TGI is < 0.01 µM in the experiment with SF-295 CNS; < 0.01 µM in the experiment on HOP-92 NSCLC; < 0.01 µM in the experiment with SF-539 CNS; 15 µM in the experiment on SN12C renal; < 0.01 µM with M14 melanoma; 10.3 µM in the experiment on SF-268 CNS. Also, the values for the TGI in the experiment on SNB-19 CNS and in the experiment on IGROV1 ovarian were 10.5 µM and 12.9 µM, respectively.

In the case of `CC(=O)OCC1OC(Oc2cc(C)c(O)cc2C/C=C(\C)CC/C=C(\C)CC(=O)CC(C)C)C(O)C(OC(C)=O)C1OC(C)=O` (configuration not stated), the TGI in the experiment with SF-295 CNS was > 50 µM; with HOP-92 NSCLC, > 50 µM; in the experiment with RPMI-8226 leukemia it was 21.4 µM; in the experiment on SN12C renal, 40.3 µM; in the experiment with M14 melanoma it was 25.7 µM; in the experiment with SF-268 CNS it was > 50 µM. The TGI in the experiment with SNB-19 CNS was > 50 µM; in the experiment with K-562 leukemia it was 23.2 µM; with IGROV1 ovarian, > 50 µM.

`CC(=O)N=C1N(/C=C2\C(=O)Oc3ccccc3C2=O)C(=O)/C(=C/c2ccc(NC(C)=O)cc2)N1C`: the TGI in the experiment with SF-295 CNS, in the experiment with SF-539 CNS, in the experiment on RPMI-8226 leukemia, in the experiment on SN12C renal, in the experiment on M14 melanoma and in the experiment with SF-268 CNS was > 100 µM in each case. The TGI in the experiment with K-562 leukemia, in the experiment on IGROV1 ovarian and in the experiment with SR leukemia was > 100 µM throughout.

For `CN(C)C(=O)OC(Cn1cncn1)(Cn1cncn1)c1ccc(Cl)cc1Cl`, the TGI with SF-295 CNS, with HOP-92 NSCLC, in the experiment with SF-539 CNS, in the experiment on RPMI-8226 leukemia, with M14 melanoma and in the experiment with SF-268 CNS was > 100 µM throughout. Besides, the TGI in the experiment on SNB-19 CNS, with K-562 leukemia and in the experiment on IGROV1 ovarian was > 100 µM throughout.

Regarding `O=C1c2cc(Cl)ccc2NC(=NCCCl)C2CSCN12` (configuration not stated), the TGI in the experiment with SF-295 CNS, in the experiment on RPMI-8226 leukemia, in the experiment on SN12C renal, in the experiment on M14 melanoma, with SF-268 CNS and with SNB-19 CNS was > 100 µM each time. Also, the TGI in the experiment with K-562 leukemia, with IGROV1 ovarian and in the experiment on SR leukemia was > 100 µM throughout.
